ChEMBL document CHEMBL4368853 (Medchemcomm, 2018)
pEC50, pIC50, pKd, pKi: −log10 of the molar value.

Assays:
[1] = Oral bioavailability in monkey; type: ADME, organism-based, Macaca mulatta; settings: rhesus monkey, in vivo
CHP-212 = test: Antitumor activity against human CHP212 cells xenografted in Crl:CD-1-Foxn1 nude mouse assessed as tumor growth inhibition at 15 mg/kg, po administered once daily for 42 days relative to control; type: functional; settings: CHP-212, po, 1008 h, read-out: TGI
[2] = Oral bioavailability in dog; type: ADME, organism-based, Canis lupus familiaris; settings: in vivo
[3] = target: T1, Bromodomain-containing protein 4 (Homo sapiens, UniProt O60885); test: Inhibition of acetyl-histone H4 peptide binding to His6-tagged BRD4 (1 to 477 residues) (unknown origin) after 35 mins by TR-FRET assay
OPM-2 [4] = test: Antitumor activity against human OPM2 cells xenografted in SCID Beige mouse assessed as tumor growth inhibition at 2.5 mg/kg, po administered once daily for 21 days relative to control; type: functional; settings: OPM-2, po, 504 h, read-out: TGI
[5] = target: T1, Bromodomain-containing protein 4; test: Inhibition of His-tagged BRD4 bromodomain 2 (E352 to M457 residues) (unknown origin) by Alexa-647 conjugated probe based TR-FRET assay; type: single protein
MX1 [6] = test: Antiproliferative activity against human MX1 cells after 72 hrs by CellTiter-Glo assay; type: functional, cell-based; settings: MX1, 72 h
[7] = target: T1, Bromodomain-containing protein 4; test: Inhibition of His-tagged BRD4 bromodomain 1 (K57 to E168 residues) (unknown origin) by Alexa-647 conjugated probe based TR-FRET assay; type: single protein
[8] = target: T1, Bromodomain-containing protein 4; test: Binding affinity to BRD4 bromodomain 1 (unknown origin) by isothermal titration calorimetry
HL-60 = test: Growth inhibition of human HL60 cells at 10 uM after 48 hrs by sulforhodamine B assay; type: functional; settings: HL-60, 48 h, read-out: GI
[9] = target: T1, Bromodomain-containing protein 4; test: Binding affinity to human partial length BRD4 bromodomain 1 long isoform (N44 to E168 residues) expressed in bacterial expression system by BROMOscan assay
[10] = target: T1, Bromodomain-containing protein 4
Description: Inhibition of biotinylated Acetyl-Histone H4 (Lys5, 8, 12, 16) peptide binding to GST-tagged BRD4 bromodomain 1 (44 to 168 residues) (unknown origin) after 30 mins by Alphascreen method

VCaP = test: Antitumor activity against human VCaP cells xenografted in mouse assessed as tumor growth inhibition at 30 mg/kg, sc administered once every 3 days for 15 days; settings: 360 h, read-out: TGI
[11] = Induction of apoptosis in human Mino cells after 48 hrs by Annexin-V/propidium iodide staining based assay; type: functional, cell-based
Z-138 = test: Induction of apoptosis in human ibrutinib-resistant Z138 cells after 48 hrs by Annexin-V/propidium iodide staining based assay; type: functional, cell-based; settings: Z-138, 48 h
[12] = target: T1, Bromodomain-containing protein 4; test: Inhibition of biotin-labelled histone peptide binding to His-tagged BRD4 (unknown origin) expressed in Escherichia coli after 30 mins by TR-FRET assay
[13] = target: T1, Bromodomain-containing protein 4; test: Inhibition of biotin-labelled tetra-acetylated histone peptide binding to recombinant human N-terminal His6-tagged BRD4 bromodomain 1 (1 to 477 residues) (unknown origin) expressed in Escherichia coli after 1 hr by TR-FRET assay
MV4-11 [14] = test: Antiproliferative activity against human MV4-11 cells; type: functional, cell-based
[15] = target: T1, Bromodomain-containing protein 4; test: Inhibition of biotinylated Acetyl-Histone H4 (Lys5, 8, […], […]) peptide binding to GST-tagged BRD4 bromodomain 2 (333 to 460 residues) (unknown origin) after 30 mins by Alphascreen method
MX1 [16] = test: Antiproliferative activity against human MX1 cells; type: functional, cell-based
OPM-2 [17] = test: Antitumor activity against human OPM2 cells xenografted in SCID Beige mouse assessed as tumor growth inhibition at 5 mg/kg, po administered once daily for 21 days relative to control; type: functional; settings: OPM-2, po, 504 h, read-out: TGI
MV4-11 [18] = test: Antiproliferative activity against human MV4-11 cells after 72 hrs by CellTiter-Glo assay; type: functional, cell-based; settings: MV4-11, 72 h
[19] = target: T1, Bromodomain-containing protein 4; test: Inhibition of recombinant human N-terminal His-tagged/C-terminal FLAG-tagged BRD4 bromodomain 1 (44 to 168 residues) expressed in Escherichia coli using histone peptide as substrate preincubated for 15 mins followed by substrate addition and measured after 60 mins
MDA-MB-453 [20] = test: Antiproliferative activity against human MDA-MB-453 cells; type: functional, cell-based
MDA-MB-453 [21] = test: Antitumor activity against human MDA-MB-453 cells xenografted in SCID mouse assessed as tumor growth inhibition at 5 mg/kg, iv; settings: MDA-MB-453, iv, read-out: TGI
[22] = target: T1, Bromodomain-containing protein 4; test: Inhibition of acetylated biotin-labelled RHGSGSK binding to N-terminal His6-tagged BRD4 bromodomain 1 (67 to 152 residues) (unknown origin) expressed in Escherichia coli after 1 hr by TR-FRET assay
[23] = target: T1, Bromodomain-containing protein 4; test: Inhibition of acetylated biotin-labelled RHGSGSK binding to BRD4 bromodomain 2 (unknown origin) after 1 hr by TR-FRET assay
[24] = target: T1, Bromodomain-containing protein 4; test: Inhibition of His6-tagged BRD4 (1 to 477 residues) (unknown origin) after 1 hr by Alexa fluor 488-conjugated probe based fluorescence anisotropy
MOLM-13 [25] = test: Antiproliferative activity against human MOLM13 cells after 96 hrs by alamar blue assay; type: functional, cell-based; settings: MOLM-13, 96 h
[26] = target: T1, Bromodomain-containing protein 4; test: Inhibition of acetylated biotin-labelled RHGSGSK binding to N-terminal His6-tagged BRD4 bromodomain 1 (44 to 168 residues) (unknown origin) expressed in Escherichia coli after 1 hr by TR-FRET assay
[27] = target: T1, Bromodomain-containing protein 4; test: Inhibition of biotinylated histone H4 peptide binding to BRD4 bromodomain 1 (44 to 168 residues) (unknown origin) after 60 mins by Alphascreen method
[28] = target: T1, Bromodomain-containing protein 4; test: Inhibition of biotinylated histone H4 peptide binding to BRD4 bromodomain 2 (333 to 460 residues) (unknown origin) after 60 mins by Alphascreen method
[29] = target: Bromodomain-containing protein 4 (Homo sapiens, UniProt O60885, Y97A); test: Inhibition of recombinant human N-terminal His6-tagged BRD4 Y97A mutant (1 to 477 residues) expressed in Escherichia coli after 30 mins by Alexa Fluor647 conjugated probe based TR-FRET assay
[30] = target: T1, Bromodomain-containing protein 4; test: Inhibition of BRD4 bromodomain 1 (unknown origin)
[31] = target: T1, Bromodomain-containing protein 4; test: Inhibition of BRD4 bromodomain 2 (unknown origin)
MV4-11 [32] = test: Antitumor activity against human MV4-11 cells xenografted in po dosed mouse assessed as tumor regression administered once daily relative to control; type: functional
MOLM-13 [33] = test: Antiproliferative activity against human MOLM13 cells; type: functional, cell-based
[34] = Oral bioavailability in rat; type: ADME, organism-based; settings: in vivo
[35] = target: T1, Bromodomain-containing protein 4; test: Inhibition of BRD4 in human MM1S cells assessed as down regulation of c-Myc expression after 1 hr by Western blot analysis
[36] = Antiproliferative activity against human CLL cells assessed as inhibition of CpG-induced cell proliferation treated for 4 hrs followed by compound washout for 44 to 48 hrs by MTS assay; type: functional, cell-based

CC(=O)N1c2ccc(-c3ccc(C(=O)O)cc3)cc2[C@H](Nc2ccc(Cl)cc2)C[C@@H]1C
bioavailability [1]: 100%
inhibition in vivo at 15 mg/kg (CHP-212): 82%
bioavailability [2]: 80%

Cc1nn(C2CC2)c2c1[C@@H](c1ccc(Cl)cc1)N(c1cc(C)c3nnc(C)n3n1)C2=O
pIC50 [3]: > 7.96

Cn1cc2c3c(c[nH]c(=O)c31)CN(c1ccccn1)c1ccc(CS(C)(=O)=O)cc1-2
inhibition in vivo at 2.5 mg/kg (OPM-2 [4]): 79%
pIC50 [5]: 8.68
pEC50 (MX1 [6]): 7.80
pIC50 [7]: 8.96

CCc1c(C(=O)Nc2cc(S(=O)(=O)N(CC)CC)ccc2O)[nH]c(C)c1C(C)=O
pKd [8]: 6.63
inhibition of growth at 10 µM (HL-60): 65%

CC(=O)N1CC(n2cc(C3CC3)c3c2C(c2ccc(Cl)cc2)N(c2cc(C)c4nnn(C)c4n2)C3=O)C1 (stereo not given)
pIC50 [3]: > 7.96

Cc1sc2c(c1C)C(c1ccc(Cl)cc1)=N[C@@H](CC(=O)OCCCCCCO)c1nnc(C)n1-2
pIC50 [9]: 9.37

CCN1C(=O)C(C)(C)c2cc3nc(-c4cc(C)c(=O)n(C)c4)n([C@@H](C)c4ccccc4)c3cc21
pIC50 [10]: 8.89

Cc1ncsc1-c1ccc([C@H](C)NC(=O)[C@@H]2C[C@@H](O)CN2C(=O)[C@@H](NC(=O)COCCCOCCNC(=O)C[C@@H]2N=C(c3ccc(Cl)cc3)c3c(sc(C)c3C)-n3c(C)nnc32)C(C)(C)C)cc1
inhibition in vivo at 30 mg/kg (VCaP): 60%
pIC50 [11]: 7.77
pIC50 (Z-138): 6.85

COc1ccc2c(ncc3nc(C4CCOCC4)n([C@H](C)COC(F)F)c32)c1-c1c(C)noc1C
pIC50 [12]: 7.68 to 8.00

COc1ccc2c(ncc3nc(C4CCC(F)(F)CC4)n([C@H](C)COC(F)F)c32)c1-c1c(C)noc1C
pIC50 [12]: 7.68 to 8.00

Cc1noc(C)c1-c1ccc2c(c1)C(C1CCCC1)(N1CCC[C@H](N)C1)C(=O)N2 (stereo not given in full)
pIC50 [13]: 8.10
pIC50 (MV4-11 [14]): 7.47

CCS(=O)(=O)Nc1ccc(Oc2ccc(F)cc2F)c(-c2cn(C)c(=O)c3[nH]c(C#CCN(C)C)cc23)c1
pKi [15]: 8.48
pEC50 (MX1 [16]): 8.03
pKi [10]: 8.89

Cn1cc2c3c(c[nH]c(=O)c31)CN(c1ccc(F)cc1F)c1ccc(CS(C)(=O)=O)cc1-2
pIC50 [5]: 8.70
pEC50 (MX1 [6]): 7.80
pIC50 [7]: 8.74
inhibition in vivo at 5 mg/kg (OPM-2 [17]): 81%

CC[C@@H]1C(=O)Nc2ccc(-c3c(C)noc3C)cc2N1Cc1ccccc1
pIC50 (MV4-11 [18]): 6.59
pIC50 [19]: 7.15

CCn1nc(C2CC2)cc1Nc1nc(C(=O)NCCCOCCOCCOCCCNc2cccc3c2CN(C2CCC(=O)NC2=O)C3=O)nc2[nH]c3cc(-c4c(C)noc4C)c(OC)cc3c12 (stereo not given)
pIC50 (MDA-MB-453 [20]): > 8.00
IC90 (MDA-MB-453 [20]): < 100 nM
inhibition in vivo at 5 mg/kg (MDA-MB-453 [21]): 85%

C[C@@H]1C(=O)N(C)c2ccc(-c3ccc(Nc4cccc(S(=O)(=O)N(C)C)c4)cc3)nc2N1C1CCN(C)CC1
pIC50 [22]: 7.70
pIC50 [23]: 7.37

COc1cnc2c(ncc3[nH]c(=O)n(Cc4ccccc4)c32)c1-c1c(C)noc1C
pIC50 [24]: 6.50

Cc1nnc(C[C@@H]2N=C(c3ccc(Cl)cc3)c3ccccc3-n3c(C)nnc32)o1
pEC50 (MOLM-13 [25]): 6.85
pIC50 [26]: 7.70

COc1ccc2c(ncc3nc(N4CCOCC4)n([C@H](C)COC(F)F)c32)c1-c1c(C)noc1C
pIC50 [12]: 8.00

CC(=O)N1c2ccc(-c3ccc(-c4cnn(C5CC5)c4)c(OC[C@H]4CC4(F)F)c3)cc2CC[C@H]1C
pIC50 [27]: > 7.00
pIC50 [28]: > 7.30

COc1cnc2c(ncc3[nH]c(=O)n(Cc4ccccc4OC(F)(F)F)c32)c1-c1c(C)noc1C
pIC50 [24]: 6.80

CC(=O)N1c2ccc(-c3ccc(C#N)cc3)cc2[C@H](Nc2ncccc2F)[C@@H](C)[C@@H]1C1CC1
pIC50 [29]: > 7.00

COc1ccc2c([nH]c3nc(C)nc(-c4ccnc5ccccc45)c32)c1-c1c(C)noc1C
pKi [30]: 8.09
pKi [31]: 8.85
Activity (MV4-11 [32]): >80%
pIC50 (MOLM-13 [33]): 7.28
bioavailability [34]: 93%
pIC50 (MV4-11 [14]): 7.59

COc1nnc2ccc(N3CCC(c4ccc(OCCN5CCN(C)C(=O)[C@H]5C)cc4)CC3)nn12 [AZD-5153]
pIC50 [35]: 8.27

Cc1noc(C)c1-c1cnc2c(-c3ccc(C(=O)O)cc3)cn([C@@H](C)c3ccccn3)c2c1 [PLX-51107]
pIC50 [36]: 5.00 to 6.81
